Our source for the TGI values is PubChem BioAssay (NCI).

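Briefly, cells in 96-well plates were exposed to five compound concentrations for 48 h, and endpoints were estimated by linear interpolation. At the TGI there is no net growth.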

Test systems include 786-0 renal; A549 NSCLC; HCT-15 colon; HL-60(TB) leukemia; HOP-62 NSCLC; HT29 colon; KM12 colon; LOX IMVI melanoma; NCI-H522 lung; OVCAR-8 ovarian; SF-268 CNS; SNB-19 CNS; SNB-75 CNS; T-47D breast; CCRF-CEM leukemia.
What all share (test): NCI anticancer screen, dose series, 48 h

Regarding `N#Cc1c(Cl)cc(C#N)n2c1nc1ccccc12`, the TGI was determined as 7.08 µM in the test with 786-0 renal; 22.2 µM in the test with A549 NSCLC; 21.2 µM with HCT-15 colon; 3.03 µM in the test with HL-60(TB) leukemia; 44.1 µM in the test with HOP-62 NSCLC; 21.4 µM in the test with HT29 colon. Further, the TGI with KM12 colon was 23.2 µM; in the test with LOX IMVI melanoma it was 7.02 µM; in the test with NCI-H522 lung it was 5.69 µM; in the test with OVCAR-8 ovarian, 21 µM; in the test with SF-268 CNS it was 13.6 µM; with SNB-19 CNS, > 84.7 µM. The TGI in the test on SNB-75 CNS was determined as 38.7 µM; with T-47D breast, 11.1 µM.
For the compound `S=C1NC2=C(CSC/C2=C\c2ccc(Cl)cc2)C(c2ccc(Cl)cc2)N1` (stereo not drawn), the TGI with 786-0 renal was 84 µM; in the test on A549 NSCLC, > 100 µM; with CCRF-CEM leukemia, 70.9 µM; with HCT-15 colon it was > 100 µM; in the test on HL-60(TB) leukemia, 70.7 µM; with HOP-62 NSCLC, > 100 µM. The TGI with HT29 colon, with KM12 colon, in the test with LOX IMVI melanoma, in the test with NCI-H522 lung, with OVCAR-8 ovarian and in the test with SF-268 CNS was > 100 µM each time. In addition, the TGI in the test on SNB-19 CNS and in the test on T-47D breast was > 100 µM throughout.
Consider `CCOC(=O)[C@@H]1[C@@H](c2ccccc2)N(C)O[C@@]1(c1ccccc1)C(F)(F)F`, for which the TGI in the test on 786-0 renal was > 100 µM; in the test with A549 NSCLC, > 100 µM; in the test with CCRF-CEM leukemia, 60.7 µM; with HCT-15 colon, > 100 µM; with HOP-62 NSCLC, > 100 µM; in the test with HT29 colon it was > 100 µM. Moreover, the TGI with KM12 colon, with LOX IMVI melanoma, in the test with NCI-H522 lung, in the test on OVCAR-8 ovarian, in the test on SF-268 CNS and with SNB-19 CNS was > 100 µM each time. Also, the TGI in the test on SNB-75 CNS and in the test with T-47D breast was > 100 µM each time.
Consider `CCCCC(=O)/C=c1/cc(C)[nH]c2cccc3cnn1c32`, for which the TGI in the test with 786-0 renal, in the test with A549 NSCLC, in the test on CCRF-CEM leukemia, in the test on HCT-15 colon, in the test with HL-60(TB) leukemia and in the test on HOP-62 NSCLC was > 100 µM in each case. Besides, the TGI in the test with HT29 colon, in the test on KM12 colon, in the test on LOX IMVI melanoma, in the test on NCI-H522 lung, with OVCAR-8 ovarian and with SF-268 CNS was > 100 µM each time. The TGI in the test with SNB-19 CNS and with T-47D breast was > 100 µM throughout.
Take `COC(=O)[C@@H]1CN(C(=O)CCc2ccccc2)C(=O)N1`: the TGI with 786-0 renal, with A549 NSCLC, in the test with CCRF-CEM leukemia, with HCT-15 colon, in the test with HL-60(TB) leukemia and in the test with HOP-62 NSCLC was > 100 µM in each case. The TGI in the test on HT29 colon, in the test on KM12 colon, in the test with LOX IMVI melanoma, in the test with NCI-H522 lung, in the test with OVCAR-8 ovarian and in the test with SF-268 CNS was > 100 µM throughout. The TGI in the test with SNB-19 CNS and with T-47D breast was > 100 µM in each case.
With `[N-]=[N+]=NC1C(O)C(CO)OC1n1ccc(N)nc1=O` (stereo not drawn), the TGI was > 625 µM in the test on 786-0 renal; > 625 µM with A549 NSCLC; > 625 µM in the test on HCT-15 colon; 25.3 µM in the test on HL-60(TB) leukemia; > 625 µM with HOP-62 NSCLC; > 625 µM in the test on HT29 colon. For the same compound, the TGI in the test on KM12 colon, in the test on LOX IMVI melanoma, with NCI-H522 lung, in the test on OVCAR-8 ovarian, with SF-268 CNS and in the test with SNB-19 CNS was > 625 µM each time. In addition, the TGI was > 625 µM with SNB-75 CNS and > 189 µM in the test with T-47D breast.
Turning to `CCc1n[nH]c(=O)n1CC`, the TGI with 786-0 renal, with A549 NSCLC, with CCRF-CEM leukemia, in the test on HCT-15 colon, in the test with HL-60(TB) leukemia and with HOP-62 NSCLC was > 100 µM throughout. Also, the TGI in the test on HT29 colon, with KM12 colon, in the test with LOX IMVI melanoma, in the test on NCI-H522 lung, with OVCAR-8 ovarian and in the test with SF-268 CNS was > 100 µM each time. Also, the TGI with SNB-19 CNS and in the test with T-47D breast was > 100 µM throughout.
With `O=C(c1cscc1CCc1ccccc1)c1cscc1CCc1ccccc1`, the TGI with 786-0 renal, with A549 NSCLC, in the test on CCRF-CEM leukemia, with HCT-15 colon, with HOP-62 NSCLC and with KM12 colon was > 100 µM throughout. The TGI in the test with LOX IMVI melanoma, in the test on NCI-H522 lung, in the test on OVCAR-8 ovarian, in the test on SF-268 CNS, in the test on SNB-19 CNS and with SNB-75 CNS was > 100 µM in each case. Besides, the TGI with T-47D breast is > 100 µM.
As for `Cc1cc(N2CCOCC2)nc2ccc(Cc3ccc4nc(N5CCOCC5)cc(C)c4c3)cc12`, the TGI in the test with 786-0 renal was > 100 µM; with A549 NSCLC, > 100 µM; with HCT-15 colon, > 100 µM; with HOP-62 NSCLC it was > 100 µM; with HT29 colon, 49.3 µM; in the test on KM12 colon, > 100 µM. The TGI in the test with LOX IMVI melanoma, in the test with NCI-H522 lung, with OVCAR-8 ovarian, in the test with SF-268 CNS, in the test with SNB-19 CNS and in the test with SNB-75 CNS was > 100 µM throughout. The same compound yielded a TGI in the test with T-47D breast of 52.2 µM.
As to `CCOC(=O)CN1C(=O)NC(C)(c2ccccc2)C1=O` (stereo not drawn), the TGI in the test with 786-0 renal, in the test with A549 NSCLC, with CCRF-CEM leukemia, in the test with HCT-15 colon, in the test on HOP-62 NSCLC and in the test on HT29 colon was > 100 µM throughout. In addition, the TGI in the test on KM12 colon, in the test with LOX IMVI melanoma, with NCI-H522 lung, in the test with OVCAR-8 ovarian, in the test on SF-268 CNS and with SNB-19 CNS was > 100 µM each time. In addition, the TGI with SNB-75 CNS and in the test on T-47D breast was > 100 µM throughout.
